Reference: US20240199647A1, “ANTI-VIRAL COMPOUNDS” (Aligos Therapeutics, Inc., priority 2022, published 2024)
Read-outs that look alike come from different tables or passages of the source.

Legend:
in vitro = settings: human
[1] = Cytotoxicity in HeLa cells without addition of OC43 virus (in parallel); settings: human, HeLa cells, without OC43 virus
[2] = test system: human beta-coronavirus OC43; test: OC43 Coronavirus Assay in HeLa cells (antiviral, cytopathic effect, cell-titer-glo); assay type: cell-based; settings: Betacoronavirus 1, OC43, HeLa, Table B, OC43 coronavirus in HeLa cells, read-out: EC50
SARS-Cov-2 3CLpro = SARS-Cov-2 3CLpro (Severe acute respiratory syndrome coronavirus 2, UniProt P0DTD1); test: biochemical; settings: Table A, class symbols, read-out: SARS-Cov-2 (IC50)
[3] = test system: SARS-CoV-2 B.1.1.7 lineage; test: microbe, parasite or virus in culture; assay type: cell-based; settings: Severe acute respiratory syndrome coronavirus 2, Table C, SARS-CoV-2 B.1.1.7 in A549-dual_ACE2_TMPRSS2 cells, read-out: A549-dual_ACE2_TMPRSS2 (EC50)

SMILES | CC50 (in vitro) | CC50 at 6 days [1] | EC50 ([2]; class symbols) | IC50 (SARS-Cov-2 3CLpro) | EC50 ([3]; class symbols) | EC50 ([3]; cells given as a bound) | EC50 ([2]; cells given as a bound)
CC(C)C[C@@H](C(=O)N1C[C@@]2(C[C@H]1C#N)Oc1ccccc1NC2=O)N(C)C(=O)[C@H](C)NC(=O)C(F)(F)F [Example 1, (S)—N—((S)-1-((2R,5′S)-5′-cyano-3-oxo-3,4-dihydrospiro[benzo[b][1,4]oxazine-2,3′-pyrrolidin]-1′-yl)-4-methyl-1-oxopentan-2-yl)-N-methyl-2-(2,2,2-trifluoroacetamido)propanamide] | > 1 µM | > 10 µM | < 0.1 µM | < 0.02 µM | < 0.1 µM |  | 
CN(C(=O)c1ncc(-c2ccccc2)[nH]1)[C@@H](CC1CC1)C(=O)N1C[C@@]2(C[C@H]1C#N)Oc1cccnc1NC2=O [Compound 208] | > 1 µM | > 10 µM | 0.1 to 1 µM | 0.02 to 0.2 µM | 0.1 to 1 µM |  | 
CN(C(=O)[C@H](CC(C)(C)C)n1cc(C2CC2)nn1)[C@@H](CC1CC1)C(=O)N1C[C@@]2(C[C@H]1C#N)Oc1cc(F)cc(F)c1NC2=O [Compound 150] | > 1 µM | > 10 µM | < 0.1 µM | < 0.02 µM | < 0.1 µM |  | 
CC(C)C[C@@H](C(=O)N1C[C@@]2(C[C@H]1C#N)Oc1cc(F)cc(F)c1NC2=O)N(C)C(=O)[C@H](CC(C)(C)F)NC(=O)C(F)(F)F [Compound 64] | > 1 µM | > 10 µM | < 0.1 µM | < 0.02 µM | 0.1 to 1 µM |  | 
CC(C)C[C@@H](C(=O)N1C[C@]2(CCC3(CC3)NC2=O)C[C@H]1C#N)N(C)C(=O)[C@H](C)NC(=O)C(F)(F)F [Compound 20] | > 1 µM | > 10 µM | 1 to 10 µM | 0.02 to 0.2 µM | 0.1 to 1 µM |  | 
COC(=O)N[C@@H](CC1CC1)C(=O)N(C)[C@@H](CC1CC1)C(=O)N1C[C@@]2(C[C@H]1C#N)Oc1ncccc1NC2=O [Compound 214] | > 1 µM | > 10 µM | < 0.1 µM | < 0.02 µM | 0.1 to 1 µM |  | 
C[C@H](NC(=O)C(F)(F)F)C(=O)N(C)[C@@H](CC1CC1)C(=O)N1C[C@@]2(C[C@H]1C#N)Oc1cccnc1NC2=O [Compound 84] | > 1 µM | > 10 µM | 1 to 10 µM | < 0.02 µM | < 0.1 µM |  | 
Cc1ccc2c(n1)O[C@@]1(C[C@@H](C#N)N(C(=O)[C@H](CC3CC3)N(C)C(=O)[C@H](CC3CC3)NC(=O)C(F)(F)F)C1)C(=O)N2 [Compound 227, (S)—N—((S)-1-((3R,5'S)-5′-cyano-6-methyl-2-oxo-1,2-dihydrospiro[pyrido[2,3-b][1,4]oxazine-3,3′-pyrrolidin]-1′-yl)-3-cyclopropyl-1-oxopropan-2-yl)-3-cyclopropyl-N-methyl-2-(2,2,2-trifluoroacetamido)propanamide] | > 1 µM | > 10 µM | < 0.1 µM | < 0.02 µM | 0.1 to 1 µM |  | 
CN(C(=O)[C@H](CC(C)(C)C)NC(=O)C(F)(F)F)[C@@H](CC1CC1)C(=O)N1C[C@@]2(C[C@H]1C#N)Oc1ncccc1NC2=O [Compound 204] | > 1 µM | > 10 µM | < 0.1 µM | < 0.02 µM | < 0.1 µM |  | 
CN(C(=O)[C@H](CC1CC1)NC(=O)C(F)(F)F)[C@@H](CC1CC1)C(=O)N1C[C@@]2(C[C@H]1C#N)Oc1cccnc1NC2=O [Compound 66] | > 1 µM | > 10 µM | < 0.1 µM | < 0.02 µM | < 0.1 µM |  | 
C[C@H](NC(=O)C(F)(F)Cl)C(=O)N(C)[C@@H](CC1CC1)C(=O)N1C[C@@]2(CC1C#N)Oc1cccnc1NC2=O (stereo partly drawn) [Compound 174] | > 1 µM | > 10 µM | < 0.1 µM | < 0.02 µM | < 0.1 µM |  | 
CN1CCC[C@H]1C(=O)N(C)[C@@H](CC1CC1)C(=O)N1C[C@@]2(C[C@H]1C#N)Oc1cc(F)cc(F)c1NC2=O [Compound 131] | > 1 µM | > 10 µM | 1 to 10 µM | 0.02 to 0.2 µM |  | > 1 µM | 
CC(C)C[C@@H](C(=O)N1C[C@@]2(C[C@H]1C#N)Oc1cc(F)cc(F)c1NC2=O)N(C)C(=O)[C@H](Cc1ccc(F)cc1)NC(=O)C(F)(F)F [Compound 69] | > 1 µM | > 10 µM |  | < 0.02 µM | 0.1 to 1 µM |  | > 10 µM
CC(C)OC(=O)N[C@@H](C)C(=O)N(C)[C@@H](CC1CC1)C(=O)N1C[C@@]2(C[C@H]1C#N)Oc1cc(F)cc(F)c1NC2=O [Compound 120, isopropyl ((S)-1-(((S)-1-((2R,5'S)-5′-cyano-5,7-difluoro-3-oxo-3,4-dihydrospiro[benzo[b][1,4]oxazine-2,3′-pyrrolidin]-1′-yl)-3-cyclopropyl-1-oxopropan-2-yl)(methyl)amino)-1-oxopropan-2-yl)carbamate] | > 1 µM | > 10 µM | 0.1 to 1 µM | < 0.02 µM | 0.1 to 1 µM |  | 
C[C@H](NC(=O)C(F)(F)C(F)(F)F)C(=O)N(C)[C@@H](CC1CC1)C(=O)N1C[C@@]2(C[C@H]1C#N)Oc1cc(F)cc(F)c1NC2=O [Compound 95] | > 1 µM | > 10 µM | 1 to 10 µM | < 0.02 µM | < 0.1 µM |  | 
COC(=O)N[C@@H](C)C(=O)N(C)[C@@H](CC(C)C)C(=O)N1C[C@@]2(C[C@H]1C#N)Oc1cc(F)cc(F)c1NC2=O [Compound 70] | > 1 µM | > 10 µM |  | < 0.02 µM | 0.1 to 1 µM |  | > 10 µM
CN(C(=O)[C@@H](Cc1ccc(F)cc1)NC(=O)C(F)(F)F)[C@@H](CC1CC1)C(=O)N1C[C@@]2(C[C@H]1C#N)Oc1cccnc1NC2=O [Compound 200] | > 1 µM | > 10 µM | 0.1 to 1 µM | < 0.02 µM | < 0.1 µM |  | 
CC(C)C[C@H](NC(=O)C(F)(F)F)C(=O)N(C)[C@@H](CC(C)C)C(=O)N1C[C@@]2(C[C@H]1C#N)Oc1cc(F)cc(F)c1NC2=O [Compound 63] | > 1 µM | > 10 µM | 0.1 to 1 µM | < 0.02 µM | 0.1 to 1 µM |  | 
CN(C(=O)C(O)c1ccc(F)cc1)[C@@H](CC1CC1)C(=O)N1C[C@@]2(C[C@H]1C#N)Oc1cc(F)cc(F)c1NC2=O (stereo partly drawn) [Compound 136] | > 1 µM | > 10 µM | 0.1 to 1 µM | < 0.02 µM | 0.1 to 1 µM |  | 
C[C@H](NC(=O)OC1CC1)C(=O)N(C)[C@@H](CC1CC1)C(=O)N1C[C@@]2(C[C@H]1C#N)Oc1cccnc1NC2=O [Compound 219] | > 1 µM | > 10 µM | < 0.1 µM | < 0.02 µM | 0.1 to 1 µM |  | 
C[C@H](OCc1ccccc1)[C@H](NC(=O)C(F)(F)F)C(=O)N(C)[C@@H](CC1CC1)C(=O)N1C[C@@]2(C[C@H]1C#N)Oc1cccnc1NC2=O [Compound 192] | > 1 µM | > 10 µM | 0.1 to 1 µM | 0.02 to 0.2 µM | 0.1 to 1 µM |  | 
CN(C(=O)[C@H](CC1CC1)NS(=O)(=O)C1CC1)[C@@H](CC1CC1)C(=O)N1C[C@@]2(C[C@H]1C#N)Oc1ccccc1CNC2=O [Compound 175] | > 1 µM | > 10 µM | < 0.1 µM | < 0.02 µM | 0.1 to 1 µM |  | 
CC(C)C[C@@H](C(=O)N1C[C@@]2(C[C@H]1C#N)Oc1c(F)cc(F)cc1NC2=O)N(C)C(=O)[C@H](C)NC(=O)C(F)(F)F [Compound 49] | > 1 µM | > 10 µM | 0.1 to 1 µM | < 0.02 µM | 0.1 to 1 µM |  | 
C[C@@H](C(=O)N(C)[C@@H](CC1CC1)C(=O)N1C[C@@]2(C[C@H]1C#N)Oc1cccnc1NC2=O)n1cc(C2CC2)nn1 [Compound 155] | > 1 µM | > 10 µM | 0.1 to 1 µM | 0.02 to 0.2 µM | 0.1 to 1 µM |  | 
